Assay results as given in patent US6379882B1, “Method for selecting compounds for treating ischemia-related cellular damage” (Elan Pharmaceuticals, Inc., priority 1998, dated 2002).
“Also recorded” adds a separate entry of the source. Like-named read-outs stand apart in the source and are kept apart here.

Legend:
retinal ganglion cells [1] = details: literature; cited from earlier work
retinal ganglion cells [2] = assay type: cell-based, rat
[3] = system: rat neocortical tissue slices; details: Evans et al. 1982; Kral et al. 1993; cited from earlier work
cortical neuronal cells = details: cited from earlier work
NMDA receptor = details: whole cell recordings; Chen et al. 1998; cited from earlier work
[4] = system: isolated retinas of chick embryos; details: LDH release and histological assessment; Chen et al. 1998; cited from earlier work
retinal ganglion cells [5] = details: Lagreze et al. 1998, cited from earlier work
[6] = co-exposure to 1.0 mM, about 24 hours, Yamamoto and Tang 1998

SMILES	prevention of NMDA receptor-mediated death of retinal ganglion cells in vivo (retinal ganglion cells [1])	protection of oxygen/glucose-deprived RGCs from apoptotic cell death (in words) (retinal ganglion cells [2])	NMDA receptor mediated currents (NMDA receptor)	protective effect on neurons under ischemic or excitotoxic conditions [4]	other results
NC(CCCCCP(=O)(O)O)C(=O)O (stereo not drawn)	prevent NMDA receptor-mediated death of retinal ganglion cells in vivo				
NC(CCCP(=O)(O)O)C(=O)O (racemic) [AP-5, DL-2-amino-5-phosphonovaleric acid]		demonstrated biological activity in protecting oxygen/glucose-deprived RGCs from apoptotic cell death			protective effect in neocortical tissue slices [3]: protective effect
NC(CCCCCP(=O)(O)O)C(=O)O (racemic) [AP-7]		demonstrated biological activity in protecting oxygen/glucose-deprived RGCs from apoptotic cell death			increase of extracellular LDH and neuronal disintegration by potassium cyanide and NMDA (cortical neuronal cells): partially prevented
N=C(NCCC[C@H](N)C(=O)O)N[N+](=O)[O-] [N^G-nitro-L-arginine]					increase of extracellular LDH and neuronal disintegration by potassium cyanide and NMDA (cortical neuronal cells; [6]): partially prevented
O=C(O)c1ccccc1Nc1cccc(C(F)(F)F)c1 [flufenamic acid]		demonstrated biological activity in protecting oxygen/glucose-deprived RGCs from apoptotic cell death	inhibited NMDA receptor mediated currents	protective effect	
O=C(O)c1cc(=O)c2ccccc2[nH]1 [kynurenic acid]	prevent NMDA receptor-mediated death of retinal ganglion cells in vivo				
Cc1ccc(Cl)c(Nc2ccccc2C(=O)O)c1Cl [meclofenamic acid]		to a lesser extent; also recorded: Less efficacy	inhibited NMDA receptor mediated currents	protective effect	
Cc1cccc(Nc2ccccc2C(=O)O)c1C [mefenamic acid]		to a lesser extent; also recorded: Less efficacy	inhibited NMDA receptor mediated currents	protective effect	
COc1ccc2[nH]cc(CCNC(C)=O)c2c1 [melatonin]					increase of extracellular LDH and neuronal disintegration by potassium cyanide and NMDA (cortical neuronal cells; [6]): partially prevented
CC12CC3CC(C)(C1)CC(N)(C3)C2 [memantine]	prevent NMDA receptor-mediated death of retinal ganglion cells in vivo				prevention of NMDA receptor-mediated death of retinal ganglion cells (in words) (retinal ganglion cells [5]): prevent NMDA receptor-mediated death of retinal ganglion cells; increase in the number of surviving retinal ganglion cells (retinal ganglion cells [5]; administered before retinal ischemia): ~30%; increase in the number of surviving retinal ganglion cells (retinal ganglion cells [5]; administered within 30 minutes of retinal ischemia): ~20%
